Test results as given in ChEMBL document CHEMBL2412996, “Increase of anti-HIV activity of C-peptide fusion inhibitors using a bivalent drug design approach” (Bioorg Med Chem Lett, 2013).
Square brackets hold non-standard residues; d marks the D form. Peptide text beside a SMILES is read from it. Ahx = NCCCCCC(=O)O

Key:
Type in all cases: cell-based
TZM-bl [1] = assay: Inhibition of HIV1 HXB2 gp160-mediated cell-cell fusion between viral envelope expressing human HL2/3 cells to human TZM-bl cells expressing CD4, tat, and rev by luciferase reporter gene assay relative to SC22EK; conditions: Human immunodeficiency virus 1
[2] = Inhibition of HIV1 HXB2 gp160-mediated cell-cell fusion between viral envelope expressing human HL2/3 cells to human TZM-bl cells expressing CD4, tat, and rev by luciferase reporter gene assay; conditions: Human immunodeficiency virus 1, HXB2, TZM-bl
TZM-bl [3] = assay: Inhibition of HIV1 HXB2 gp160-mediated cell-cell fusion between viral envelope expressing human HL2/3 cells to human TZM-bl cells expressing CD4, tat, and rev by luciferase reporter gene assay relative to C22; conditions: Human immunodeficiency virus 1

Row | Compound | Ratio (TZM-bl [1]) | IC50 [2] [nM] | Ratio (TZM-bl [3])
1 | CC[C@H](C)[C@H](NC(=O)[C@H](CC(C)C)NC(=O)[C@H](CCC(=O)O)NC(=O)[C@H](CCC(=O)O)NC(=O)[C@@H](NC(=O)[C@H](CCCCN)NC(=O)[C@H](CCCCN)NC(=O)[C@@H](NC(=O)[C@H](Cc1ccc(O)cc1)NC(=O)[C@H](CCC(=O)O)NC(=O)[C@H](CCC(=O)O)NC(=O)[C@@H](NC(=O)[C@H](CCCCN)NC(=O)[C@H](CCCCN)NC(=O)[C@H](CC(=O)O)NC(=O)[C@H](Cc1c[nH]c2ccccc12)NC(=O)[C@H](CCC(=O)O)NC(=O)[C@H](CCC(=O)O)NC(=O)[C@H](Cc1c[nH]c2ccccc12)NC(=O)CCCCCNC(=O)[C@H](CS)NC(C)=O)[C@@H](C)CC)[C@@H](C)O)[C@@H](C)CC)C(=O)N[C@@H](CCCCN)C(=O)N[C@@H](CCCCN)C(=O)N[C@@H](CO)C(=O)O (Ac-C[Ahx]WEEWDKKIEEYTKKIEELIKKS-OH) | 8.97 | 38.6 | –
2 | CC[C@H](C)[C@H](NC(=O)[C@H](CC(C)C)NC(=O)[C@H](CO)NC(=O)[C@H](Cc1cnc[nH]1)NC(=O)[C@@H](NC(=O)[C@H](CC(C)C)NC(=O)[C@H](CO)NC(=O)[C@@H](NC(=O)[C@H](Cc1ccc(O)cc1)NC(=O)[C@H](CC(N)=O)NC(=O)[C@H](CC(N)=O)NC(=O)[C@@H](NC(=O)[C@H](CCC(=O)O)NC(=O)[C@H](CCCNC(=N)N)NC(=O)[C@H](CC(=O)O)NC(=O)[C@H](Cc1c[nH]c2ccccc12)NC(=O)[C@H](CCC(=O)O)NC(=O)[C@H](CCSC)NC(=O)[C@H](Cc1c[nH]c2ccccc12)NC(=O)CCCCCNC(=O)[C@H](CS)NC(C)=O)[C@@H](C)CC)[C@@H](C)O)[C@@H](C)CC)C(=O)N[C@@H](CCC(=O)O)C(=O)N[C@@H](CCC(=O)O)C(=O)N[C@@H](CO)C(=O)O (Ac-C[Ahx]WMEWDREINNYTSLIHSLIEES-OH) | – | 561 | 2.21
